Patent publication US20260109712A1, “RIFAMYCINS FOR NONTUBERCULOUS MYCOBACTERIA” (priority 2022, published 2026)
Converted amounts (≈) assume the structure as drawn. Read-outs that look alike come from different tables or passages of the source.

How the values were obtained:
M. szulgai ATCC 35799 = experiment: MIC, anti-mycobacterial profiling; format: cell-based, Mycobacterium szulgai; conditions: for MIC: mean of two experiments
M. chelonae ATCC 35752 = experiment: MIC, anti-mycobacterial profiling; format: cell-based, Mycobacterium chelonae; conditions: for MIC: mean of two experiments
M. abscessus Bamboo [1] = experiment: MIC assay, clinical isolate Bamboo; format: cell-based, Mycobacterium abscessus; conditions: for MIC: broth, M. abscessus Bamboo, Table 16, read-out: MIC
[2] = test system: M. intracellulare ATCC 13950; experiment: MIC, anti-mycobacterial profiling; format: cell-based, Mycobacterium intracellulare; conditions: for MIC: mean of two experiments
M. kansasii ATCC 12478 = experiment: MIC, anti-mycobacterial profiling; format: cell-based, Mycobacterium kansasii; conditions: for MIC: mean of two experiments
M. xenopi ATCC 19250 = experiment: MIC, anti-mycobacterial profiling; format: cell-based, Mycobacterium xenopi; conditions: for MIC: mean of two experiments
Δarr M. abscessus = experiment: MIC assay, isogenic arr-deleted strain; format: cell-based, Mycobacterium abscessus; conditions: arr-deleted strain; 90% growth inhibition
Method in brief: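 Two-fold, ten-point dilutions in 7H9 with 2% DMSO; mid-log culture diluted to OD600=0.1 (1×10^7 CFU/mL). Incubated 3 days at 37 °C, shaking 110 RPM; growth = Day 3 minus Day 0 OD600, expressed as percentage of drug-free growth and plotted against concentration. Two biological replicates.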

M. abscessus Bamboo [3] = experiment: Caseum surrogate MBC90 (cMBC90) kill assay; format: cell-based, Mycobacterium abscessus; conditions: for cMBC90/bMBC90: 5-day assays; for MBC: read-out: cMBC90
Text: (§1) The surrogate matrix was generated as described previously from cultured THP-1 cells (ATCC TIB-202) (mBio, 2023, 14, e0059823). M. abscessus exponential cultures grown in Middlebrook 7H9 broth (Sigma Aldrich) (OD600 0.6-0.9) were spun down and resuspended in water to an OD600 of 7, 0.7, and 0.07. As described for the M. tuberculosis caseum surrogate assay (mnBio, 2023, 14, e0059823), the bacterial suspensions (at three different dilutions resulting in ˜10^9, 10^8, and 10^7 starting CFU/mL, represented by circle, square, and triangle indicators respectively) were added to the caseum surrogate in the ratio 2:1 (vol/wt), briefly homogenized with 1.4-mm zirconia beads, divided evenly into nine 1.5-mL microcentrifuge tubes, and incubated as standing cultures at 37° C. At the indicated time points, tubes were removed and used for CFU enumeration by plating on Middlebrook 7H11 agar (Sigma Aldrich). Separate tubes were used at each time point. To determine the kill curves, cultures with a starting CFU/mL of 10^8 were used (resulting in the middle curve with square indicators). Arrows indicate the time points when drugs were added and the end of the treatment. The experiment was repeated three times independently, yielding similar results. A representative example is shown. Dots and error bars represent means and standard deviations of three technical replicates, respectively.
FIGS. 29A-29M show the Dose-response kill curves against M. abscessus Bamboo in caseum surrogate. M. abscessus cultures were set up as described in the legend of FIG. 28. Bacterial cell suspensions were added to yield a starting CFU of 10^8/mL (FIG. 28, middle growth curve with square indicators). […] The shaded areas indicate drug concentration windows achieved in caseum in vivo. (Antimicrob. Agents Chemother., 2021, 65, e0050621; Antimicrob. Agents Chemother., 2022, 66, e0221221; PLoS Med., 2019, 16, e1002773; ACS Infect. Dis., 2016, 2, 251-267). The experiment was repeated twice independently, yielding similar results. A representative example is shown. Dots and error bars represent means and standard deviations of three technical replicates, respectively. Horizontal dotted lines indicate the cutoff for 1 log reduction in CFU compared to 10-day drug-free control culture. The cMBC90 values shown in Table 16 are the drug concentrations that reduce CFU by 90% relative to the CFU of drug-free controls at day 10. Since the cultures were in the stationary phase on day 5 when drug treatment started, the CFUs of the drug-free cultures at day 10 were similar to the CFUs of the drug-free cultures at day 5 (FIG. 28).
as §1, with “(doi: 10.1128/mbio.00598-23).” for “(mBio, 2023, 14, e0059823).”, “(doi: 10.1128/mbio.00598-23),” for “(mnBio, 2023, 14, e0059823),”, “CFU/mL)” for “CFU/mL, represented by circle, square, and triangle indicators respectively)”, “curves for the drugs,” for “curves,”, “used.” for “used (resulting in the middle curve with square indicators). Arrows indicate the time points when drugs were added and the end of the treatment.”, “results.” for “results. A representative example is shown. Dots and error bars represent means and standard deviations of three technical replicates, respectively.”
The experiment was repeated twice independently, yielding similar results. A representative example is shown. The cMBC90 values shown in Table 16 are the drug concentrations that reduce CFU by 90% relative to the CFU of drug-free controls at day 10. […]

RFB-R1 M. abscessus = experiment: microbe, parasite or virus in culture; format: cell-based, Mycobacterium abscessus; conditions: for MIC: Mycobacteroides abscessus, read-out: RFB-R1 M. abscessus MIC
[4] = test system: M. avium subsp. hominisuis MAC109; experiment: MIC, anti-mycobacterial profiling; format: cell-based, Mycobacterium avium; conditions: for MIC: mean of two experiments
[5] = Mycobacterium szulgai, ATCC35799
[6] = Mycobacteroides chelonae, ATCC35752
[7] = Mycobacterium intracellulare, ATCC13950
[8] = Mycobacterium kansasii, ATCC12478
[9] = Mycobacterium xenopi, ATCC19250
[10] = Mycobacteroides abscessus, 120 h

Row | Compound | Δarr Mab MIC (Δarr M. abscessus) | cMBC90/bMBC90 (M. abscessus Bamboo [3]) | MIC (M. szulgai ATCC 35799; [5]) | MIC (M. chelonae ATCC 35752; [6]) | MIC (M. abscessus Bamboo [1]; Mycobacteroides abscessus) | MIC [2, 7] | MIC (M. kansasii ATCC 12478; [8]) | MIC (M. xenopi ATCC 19250; [9]) | MBC (M. abscessus Bamboo [3]; [10]) | MIC (RFB-R1 M. abscessus) | MIC ([4]; Mycobacterium avium) | also measured
1 | CO[C@H]1/C=C/O[C@@]2(C)Oc3c(C)c(O)c4c(c3C2=O)C2=NC3(CCN(CC(C)C)CC3)NC2=C(NC(=O)/C(C)=C/C=C/[C@H](C)[C@H](O)[C@@H](C)[C@@H](O)[C@@H](C)[C@H](OC(=O)c2cccnc2)[C@@H]1C)C4=O [5m, 25-O-(3-pyridinecarbonyl)-25-O-desacetyrifabutin] | 0.026 µM | 12.5 | – | – | – | – | – | – | – | – | – | Fold improvement (RFB-5m vs RFB) (M. szulgai ATCC 35799): 1.7; MIC (M. szulgai ATCC 35799): 0.006 µM (≈ 0.00546 µg/mL); Fold improvement (RFB-5m vs RFB) (M. chelonae ATCC 35752): 30; MIC (M. chelonae ATCC 35752): 0.02 µM (≈ 0.0182 µg/mL); Mab Bamboo MIC (M. abscessus Bamboo [1]; 90% inhibition of bacterial growth): 0.023 µM; MIC (M. abscessus Bamboo [1]): 0.02 µM (≈ 0.0182 µg/mL); Fold improvement (RFB-5m vs RFB) [2]: 0.8; MIC [2]: 0.06 µM (≈ 0.0546 µg/mL); Fold improvement (RFB-5m vs RFB) (M. kansasii ATCC 12478): 1.0; MIC (M. kansasii ATCC 12478): 0.008 µM (≈ 0.00728 µg/mL); Fold improvement (RFB-5m vs RFB) (M. xenopi ATCC 19250): 4.0; MIC (M. xenopi ATCC 19250): 0.005 µM (≈ 0.00455 µg/mL); MBC (M. abscessus Bamboo [3]; caseum surrogate, 5 days, 90% CFU reduction vs drug-free control): 2 µM (≈ 1.82 µg/mL); RFB-R1 M. abscessus MIC (RFB-R1 M. abscessus; rpoB H447Y mutant, 90% inhibition): >100 µM; Fold improvement (RFB-5m vs RFB) [4]: 0.8; MIC [4]: 0.04 µM (≈ 0.0364 µg/mL)
2 | CC[C@H]1OC(=O)[C@H](C)[C@@H](O[C@H]2C[C@@](C)(OC)[C@@H](O)[C@H](C)O2)[C@H](C)[C@@H](O[C@@H]2O[C@H](C)C[C@H](N(C)C)[C@H]2O)[C@](C)(OC)C[C@@H](C)C(=O)[C@H](C)[C@@H](O)[C@]1(C)O [clarithromycin, reference compound] | 1.8 µM | 64 | 0.3 µM (≈ 0.224 µg/mL) | 0.1 µM (≈ 0.0748 µg/mL) | 0.4 µM (≈ 0.299 µg/mL) | 0.4 µM (≈ 0.299 µg/mL) | 0.3 µM (≈ 0.224 µg/mL) | 0.06 µM (≈ 0.0449 µg/mL) | 128 µM (≈ 95.7 µg/mL) | 2.1 µM (≈ 1.57 µg/mL) | 0.5 µM (≈ 0.374 µg/mL) | –
3 | CO[C@H]1/C=C/O[C@@]2(C)Oc3c(C)c(O)c4c(c3C2=O)C2=NC3(CCN(CC(C)C)CC3)NC2=C(NC(=O)/C(C)=C\C=C\[C@H](C)[C@H](O)[C@@H](C)[C@@H](O)[C@@H](C)[C@H](OC(C)=O)[C@@H]1C)C4=O [rifabutin, reference compound] | 0.031 µM | 16 | 0.01 µM (≈ 0.00847 µg/mL) | 0.6 µM (≈ 0.508 µg/mL) | 3 µM (≈ 2.54 µg/mL) | 0.05 µM (≈ 0.0424 µg/mL) | 0.008 µM (≈ 0.00678 µg/mL) | 0.02 µM (≈ 0.0169 µg/mL) | 72 µM (≈ 61 µg/mL) | > 100 µM | 0.03 µM (≈ 0.0254 µg/mL) | –
